{
  "source": "patent US20070142317A1",
  "about": "“Topical composition for treatment of skin disorders” (QLT USA, Inc., priority 2003, published 2007)",
  "key": {"Jurkat T cells": {"test_system": "Jurkat T cells", "test": "TUNEL apoptosis assay, sequential exposure to dCF then dAd (Example 21)", "assay_type": "cell-based", "details": "no dCF (0 uM)", "method": "(§1) Thus, it is hypothesized that the sequential exposure of the cells to dCF, followed by deoxyadenosine (dAd) will lead to greater levels of apoptosis than dCF alone. […] The cells were then incubated in dAd for 2 more days. At the end of the treatment period, the cells were harvested for analysis by a TUNEL assay, a flow-cytometry-based method to quantify the percentage of cells that have undergone apoptosis. The level of apoptosis is expressed as “% FITC shift”. As a positive control, the cells were exposed to 5 mM camptothecin for 2 days."}, "U937 monocytoid cells": {"test_system": "U937 monocytoid cells", "test": "TUNEL apoptosis assay, sequential exposure to dCF then dAd (Example 21)", "assay_type": "cell-based", "details": "no dCF (0 uM)", "method": "as §1"}},
  "data": [
    {"compound": "Nc1ncnc2c1ncn2[C@H]1C[C@H](O)[C@@H](CO)O1", "note": "[dAd, 2′-deoxyadenosine]", "values": [
      {"measurement": "% FITC Shift", "setting": "Jurkat T cells; dAd 10 uM 2 days", "value": 1.6, "unit": "%"},
      {"measurement": "% FITC Shift", "setting": "Jurkat T cells; dAd 50 uM 2 days", "value": 4.2, "unit": "%"},
      {"measurement": "% FITC Shift", "setting": "Jurkat T cells; dAd 250 uM 2 days", "value": 22.2, "unit": "%"},
      {"measurement": "% FITC Shift", "setting": "U937 monocytoid cells; dAd 10 uM 2 days", "value": 1.8, "unit": "%"},
      {"measurement": "% FITC Shift", "setting": "U937 monocytoid cells; dAd 50 uM 2 days", "value": 2.6, "unit": "%"},
      {"measurement": "% FITC Shift", "setting": "U937 monocytoid cells; dAd 250 uM 2 days", "value": 92, "unit": "%"}
    ]}
  ]
}
